Key:
Assay type in all cases: in vivo
[1] = system: Italian ryegrass (Lolium multiflorum); experiment: Test A preemergence, visual injury rating
Outline: (§1)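 Injury scores run from 0, no effect, to 100, complete control, judged by eye against untreated plants roughly 10 days after treatment. Chemicals carried a surfactant in a non-phytotoxic solvent and went onto loam–sand soil preemergence or onto one- to two-leaf seedlings postemergence.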

[2] = system: barnyardgrass (Echinochloa crus-galli); experiment: Test A preemergence, visual injury rating; settings: for Plant response rating, Barnyardgrass: 31 g ai/ha, 0 to 100 scale, 0 no effect, 100 complete control
Outline: as §1

[3] = system: giant foxtail (Setaria faberii); experiment: Test A preemergence, visual injury rating
Outline: as §1

kochia (Kochia scoparia) [4] = experiment: Test A preemergence, visual injury rating
Outline: as §1

[5] = system: pigweed (Amaranthus retroflexus); experiment: Test A preemergence, visual injury rating
Outline: as §1

[6] = system: ragweed (common ragweed, Ambrosia elatior); experiment: Test A preemergence, visual injury rating
Outline: as §1

[7] = system: barnyardgrass (Echinochloa crus-galli); experiment: Test B flooded paddy test, plant response rating; settings: 250 g ai/ha, Flood, scale of 0 to 100 where 0 is no effect and 100 is complete control, 13 to 15 days
Outline: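 Under a constant 3 cm flood, test compounds went directly into the paddy water. Following 13 to 15 days of greenhouse growth, treated species and controls were compared by eye.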

[8] = system: blackgrass (Alopecurus myosuroides); experiment: Test C postemergence, plant response rating
Outline: (§2)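 Both timings shared one formulation, a non-phytotoxic solvent mixture with surfactant, and a greenhouse period of 13 to 15 d. Preemergence used seeded loam/sand or silt loam soil, postemergence used 2 to 18 cm plants; visual ratings ran from 0 (no effect) to 100 (complete control).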

corn (Zea mays) = experiment: Test C postemergence, plant response rating
Outline: as §2

[9] = system: crabgrass, large (large crabgrass, Digitaria sanguinalis); experiment: Test C postemergence, plant response rating
Outline: as §2

[10] = system: galium (catchweed bedstraw, Galium aparine); experiment: Test C postemergence, plant response rating
Outline: as §2

kochia (Kochia scoparia) [11] = experiment: Test C postemergence, plant response rating
Outline: as §2

[12] = system: morningglory (Ipomoea coccinea); experiment: Test C postemergence, plant response rating
Outline: as §2

[13] = system: nutsedge, yellow (yellow nutsedge, Cyperus esculentus); experiment: Test C postemergence, plant response rating
Outline: as §2

[14] = system: oilseed rape (Brassica napus); experiment: Test C postemergence, plant response rating
Outline: as §2

[15] = system: wheat (winter wheat, Triticum aestivum); experiment: Test C postemergence, plant response rating
Outline: as §2

[16] = 31 g ai/ha, 0 to 100 scale, 0 no effect, 100 complete control
[17] = 125 g ai/ha, 0 to 100 scale (0 no effect, 100 complete control)
[18] = 62 g ai/ha, scale 0 to 100 (0 no effect, 100 complete control)
[19] = 125 g ai/ha, scale 0 to 100 (0 no effect, 100 complete control)

O=C(CCC(F)(F)F)c1c(Cl)cccc1Oc1ncc(Cl)cn1 [Compound 107, 1-[2-chloro-6-[(5-chloro-2-pyrimidinyl)oxy]phenyl]-4,4,4-trifluoro-1-butanone]
Plant response rating, Ryegrass, Italian [1, 16]: 30 | Plant response rating, Ryegrass, Italian [1, 17]: 80 | Plant response rating, Barnyardgrass [2]: 90 | pest or weed control at 125 g/ha ([2]; Echinochloa crus-galli, pre-emergence, 240 h, 125 g ai/ha, 0 to 100 scale (0 no effect, 100 complete control), read-out: Barnyardgrass plant response rating): 100% | Plant response rating, Foxtail, Giant [3, 16]: 100 | Plant response rating, Foxtail, Giant [3, 17]: 100 | Plant response rating, Kochia (kochia (Kochia scoparia) [4]; [16]): 90 | Plant response rating, Kochia (kochia (Kochia scoparia) [4]; [17]): 100 | Plant response rating, Pigweed [5, 16]: 100 | Plant response rating, Pigweed [5, 17]: 100 | Plant response rating, Ragweed [6, 16]: 0 | Plant response rating, Ragweed [6, 17]: 20 | pest or weed control at 250 g/ha ([7]; Echinochloa crus-galli, 312 h): 50% | pest or weed control at 16 g/ha ([8]; Alopecurus myosuroides, post-emergence, 16 g ai/ha, scale 0 to 100): 5% | pest or weed control at 31 g/ha ([8]; Alopecurus myosuroides, post-emergence, 31 g ai/ha, scale 0 to 100): 20% | pest or weed control at 62 g/ha ([8]; Alopecurus myosuroides, post-emergence, 62 g ai/ha, scale 0 to 100 (0 no effect, 100 complete control)): 20% | pest or weed control at 125 g/ha ([8]; Alopecurus myosuroides, post-emergence, 125 g ai/ha, scale 0 to 100 (0 no effect, 100 complete control)): 60% | Corn plant response rating (crop injury, 0 = no effect, 100 = complete kill) at 16 g/ha (corn (Zea mays); Zea mays, post-emergence, 16 g ai/ha, scale of 0 to 100): 10% | Corn plant response rating (crop injury, 0 = no effect, 100 = complete kill) at 31 g/ha (corn (Zea mays); Zea mays, post-emergence, 31 g ai/ha, scale 0 to 100): 20% | plant injury at 62 g/ha (corn (Zea mays); Zea mays, post-emergence, 62 g ai/ha, scale 0 to 100 (0 no effect, 100 complete control)): 20% | plant injury at 125 g/ha (corn (Zea mays); Zea mays, post-emergence, 125 g ai/ha, scale 0 to 100 (0 no effect, 100 complete control)): 30% | pest or weed control at 16 g/ha ([9]; Digitaria sanguinalis, post-emergence, 16 g ai/ha, scale of 0 to 100): 10% | pest or weed control at 31 g/ha ([9]; Digitaria sanguinalis, post-emergence, 31 g ai/ha, scale 0 to 100): 10% | pest or weed control at 62 g/ha ([9]; Digitaria sanguinalis, post-emergence, 62 g ai/ha, scale 0 to 100 (0 no effect, 100 complete control)): 30% | pest or weed control at 125 g/ha ([9]; Digitaria sanguinalis, post-emergence, 125 g ai/ha, scale 0 to 100 (0 no effect, 100 complete control)): 60% | pest or weed control at 16 g/ha ([10]; Galium, post-emergence, 16 g ai/ha, scale of 0 to 100): 75% | pest or weed control at 31 g/ha ([10]; Galium, post-emergence, 31 g ai/ha, scale 0 to 100): 80% | pest or weed control at 62 g/ha ([10]; Galium, post-emergence, 62 g ai/ha, scale 0 to 100 (0 no effect, 100 complete control)): 90% | pest or weed control at 125 g/ha ([10]; Galium, post-emergence, 125 g ai/ha, scale 0 to 100 (0 no effect, 100 complete control)): 95% | pest or weed control at 16 g/ha (kochia (Kochia scoparia) [11]; Bassia scoparia, post-emergence, 16 g ai/ha, scale of 0 to 100): 80% | pest or weed control at 31 g/ha (kochia (Kochia scoparia) [11]; Bassia scoparia, post-emergence, 31 g ai/ha, scale 0 to 100): 85% | pest or weed control at 62 g/ha (kochia (Kochia scoparia) [11]; Bassia scoparia, post-emergence, 62 g ai/ha, scale 0 to 100 (0 no effect, 100 complete control)): 95% | pest or weed control at 125 g/ha (kochia (Kochia scoparia) [11]; Bassia scoparia, post-emergence, 125 g ai/ha, scale 0 to 100 (0 no effect, 100 complete control)): 98% | pest or weed control at 16 g/ha ([12]; Ipomoea, post-emergence, 16 g ai/ha, scale of 0 to 100): 20% | pest or weed control at 31 g/ha ([12]; Ipomoea, post-emergence, 31 g ai/ha, scale 0 to 100): 60% | pest or weed control at 62 g/ha ([12]; Ipomoea, post-emergence, 62 g ai/ha, scale 0 to 100 (0 no effect, 100 complete control)): 80% | pest or weed control at 125 g/ha ([12]; Ipomoea, post-emergence, 125 g ai/ha, scale 0 to 100 (0 no effect, 100 complete control)): 95% | pest or weed control at 16 g/ha ([13]; Cyperus, post-emergence, 16 g ai/ha, scale of 0 to 100): 5% | pest or weed control at 31 g/ha ([13]; Cyperus, post-emergence, 31 g ai/ha, scale 0 to 100): 5% | pest or weed control at 62 g/ha ([13]; Cyperus, post-emergence, 62 g ai/ha, scale 0 to 100 (0 no effect, 100 complete control)): 5% | pest or weed control at 125 g/ha ([13]; Cyperus, post-emergence, 125 g ai/ha, scale 0 to 100 (0 no effect, 100 complete control)): 5% | plant injury at 16 g/ha ([14]; Brassica napus, post-emergence, 16 g ai/ha, scale of 0 to 100): 65% | plant injury at 31 g/ha ([14]; Brassica napus, post-emergence, 31 g ai/ha, scale 0 to 100): 80% | plant injury at 62 g/ha ([14]; Brassica napus, post-emergence, 62 g ai/ha, scale 0 to 100 (0 no effect, 100 complete control)): 95% | plant injury at 125 g/ha ([14]; Brassica napus, post-emergence, 125 g ai/ha, scale 0 to 100 (0 no effect, 100 complete control)): 98% | plant injury at 16 g/ha ([15]; Triticum aestivum, post-emergence, 16 g ai/ha, scale of 0 to 100): 5% | plant injury at 31 g/ha ([15]; Triticum aestivum, post-emergence, 31 g ai/ha, scale 0 to 100): 5% | plant injury at 125 g/ha ([15]; Triticum aestivum, post-emergence, 125 g ai/ha, scale 0 to 100 (0 no effect, 100 complete control)): 30% | plant injury at 62 g/ha ([15]; Triticum aestivum, post-emergence, rate not given, scale 0 to 100, read-out: Plant response rating, Wheat): 10%

FC(F)(F)CCCc1c(Br)cccc1Oc1ncc(Cl)cn1 [Compound 89]
Plant response rating, Ryegrass, Italian [1, 16]: 0 | Ryegrass, Italian plant response rating [1, 17]: 20 | Plant response rating, Barnyardgrass [2]: 20 | Barnyardgrass plant response rating [2, 17]: 90 | Plant response rating, Foxtail, Giant [3, 16]: 10 | Foxtail, Giant plant response rating [3, 17]: 50 | Plant response rating, Kochia (kochia (Kochia scoparia) [4]; [16]): 10 | Kochia plant response rating (kochia (Kochia scoparia) [4]; [17]): 50 | Plant response rating, Pigweed [5, 16]: 10 | Pigweed plant response rating [5, 17]: 100 | Plant response rating, Ragweed [6, 16]: 0 | Ragweed plant response rating [6, 17]: 0 | Plant response rating, Barnyardgrass [7]: 40 | Plant response rating, Blackgrass ([8]; 16 g ai/ha, scale 0 to 100): 10 | Plant response rating, Blackgrass ([8]; 31 g ai/ha, scale 0 to 100): 15 | Blackgrass plant response rating [8, 18]: 30 | Blackgrass plant response rating [8, 19]: 45 | Plant response rating, Corn (corn (Zea mays); 16 g ai/ha, scale of 0 to 100): 15 | Plant response rating, Corn (corn (Zea mays); 31 g ai/ha, scale 0 to 100): 15 | Corn plant response rating (corn (Zea mays); [18]): 15 | Corn plant response rating (corn (Zea mays); [19]): 20 | Plant response rating, Crabgrass, Large ([9]; 16 g ai/ha, scale of 0 to 100): 55 | Plant response rating, Crabgrass, Large ([9]; 31 g ai/ha, scale 0 to 100): 60 | Crabgrass, Large plant response rating [9, 18]: 85 | Crabgrass, Large plant response rating [9, 19]: 90 | Plant response rating, Galium ([10]; 16 g ai/ha, scale of 0 to 100): 75 | Plant response rating, Galium ([10]; 31 g ai/ha, scale 0 to 100): 75 | Galium plant response rating [10, 18]: 80 | Galium plant response rating [10, 19]: 90 | Plant response rating, Kochia (kochia (Kochia scoparia) [11]; 16 g ai/ha, scale of 0 to 100): 70 | Plant response rating, Kochia (kochia (Kochia scoparia) [11]; 31 g ai/ha, scale 0 to 100): 75 | Kochia plant response rating (kochia (Kochia scoparia) [11]; [18]): 80 | Kochia plant response rating (kochia (Kochia scoparia) [11]; [19]): 95 | Plant response rating, Morningglory ([12]; 16 g ai/ha, scale of 0 to 100): 5 | Plant response rating, Morningglory ([12]; 31 g ai/ha, scale 0 to 100): 15 | Morningglory plant response rating [12, 18]: 25 | Morningglory plant response rating [12, 19]: 55 | Plant response rating, Nutsedge, Yellow ([13]; 16 g ai/ha, scale of 0 to 100): 0 | Plant response rating, Nutsedge, Yellow ([13]; 31 g ai/ha, scale 0 to 100): 0 | Nutsedge, Yellow plant response rating [13, 18]: 0 | Nutsedge, Yellow plant response rating [13, 19]: 5 | Plant response rating, Oilseed Rape ([14]; 16 g ai/ha, scale of 0 to 100): 60 | Plant response rating, Oilseed Rape ([14]; 31 g ai/ha, scale 0 to 100): 95 | Oilseed Rape plant response rating [14, 18]: 90 | Oilseed Rape plant response rating [14, 19]: 100 | Plant response rating, Wheat ([15]; 16 g ai/ha, scale of 0 to 100): 0 | Plant response rating, Wheat ([15]; 31 g ai/ha, scale 0 to 100): 10 | Wheat plant response rating [15, 19]: 15

From patent US11053204B2, “Pyrimidinyloxy benzene derivatives as herbicides” (FMC Corporation, priority 2015, dated 2021)
